Experimental findings from patent publication US8324228B2, “Pyrimidine classical cannabinoid compounds and related methods of use” (priority 2008, dated 2012) are described below.

The EC50 is the concentration giving half of the maximal effect.

For the assay, the system named is glioblastoma brain cancer cell line LN-229. Put plainly: Cytotoxicity assay (CCK8 viability). Format: cell-based. The following applies: Homo sapiens, cytotoxicity against LN-229 cells, 18 hours incubation. The procedure: Cytoxocity assay: Cells were seeded on a 96 well polystyrene plate in full serum media at a density of 75,000 cells per milliliter, 100 μL per well. Plates were incubated at 37° C. and 5% CO2 for 24 hours to allow cell attachment. Drug solutions were prepared in DMSO at 100× concentration and mixed 1:100 in 1% FBS media to yield the desired concentration. Drug-media mixtures were vortexed immediately prior to administration to cells. Full serum media was removed and replaced with drug-media mixtures and incubated for 18 hours. 10 μL of Cell Counting Kit 8 (CCK8, Dojindo# CK04-11) was added to each well to colormetrically assess viability. After 2-4 hours of incubation with the CCK8 dye, absorbance was read at 450 nm by a BioTek Synergy 2 plate reader.
The cytotoxicity of selected compounds against the glioblastoma brain cancer cell line LN-229 is depicted in Table 1.
In the case of `CCCCCCC(C)(C)c1nc(O)c2c(n1)OC(C)(C)[C@H]1CC[C@@H](C)C[C@@H]21` [Compound 6b, (6aS,9R,10aR)-6,6,9-Trimethyl-3-(2-methyloctan-2-yl)-6a,7,8,9,10,10a-hexahydro-6H-isochromeno[3,4-d]pyrimidin-1-ol], the EC50 came to 27.3 µM. Turning to `C[C@@H]1CC[C@H]2[C@@H](C1)c1c(O)nc(C(C)(C)C3CCCCC3)nc1OC2(C)C` [Compound 6d, (6aS,9R,10aR)-3-(2-Cyclohexylpropan-2-yl)-6,6,9-trimethyl-6a,7,8,9,10,10a-hexahydro-6H-isochromeno[3,4-d]pyrimidin-1-ol], the 50% effective concentration (EC50) amounted to 10.6 µM. As to `C[C@@H]1CC[C@H]2[C@@H](C1)c1c(O)nc(C(C)(C)c3cccs3)nc1OC2(C)C` [Compound 6e, (6aS,9R,10aR)-6,6,9-Trimethyl-3-(2-(thiophen-2-yl)propan-2-yl)-6a,7,8,9,10,10a-hexahydro-6H-isochromeno[3,4-d]pyrimidin-1-ol], the EC50 is 30.1 µM.
